Experimental data from EP3300733A1, “SUBSTANCE SELECTED AMONG IRINOTECAN, AN IRINOTECAN ACTIVE METABOLITE, 5-FLUORO-URACILE, A PHARMACEUTICAL SALT THEREOF AND A MIXTURE THEREOF, FOR USE IN THE TREATMENT OF FIBROSIS” (Centre Hospitalier Universitaire de Bordeaux, priority 2016, dated 2018).
Read-outs that look alike come from different tables or passages of the source.

Key:
[1] = system: TIMP1 mRNA; assay: mRNA expression of fibrosis genes in dermal fibroblasts (qPCR): TIMP1; assay type: cell-based; settings: Homo sapiens, Fibroblast, read-out: average inhibition of TIMP1 mRNA levels
Description: (§1) Dermal fibroblasts were obtained from clinically affected skin of systemic sclerosis (SSC) patients and from healthy donors (H). The fibroblasts were grown in DMEM medium containing 2mM of L-glutamine supplemented with 10% foetal bovine serum (FCS) and penicillin/streptomycin antibiotics.
(§2) Dermal fibroblasts were plated in DMEM 10% FCS in 24-well plates. 24h before the experiment, medium was switched to DMEM 0% FCS. […] Supernatants were removed and plates were freezed at -80°c. Fibroblasts RNA from each well-plate were extracted with NucleoSpin® RNA Plus kit (Macherey-Nagel) according to manufacter's instructions. Triplicates were done and RNA from triplicates were pooled together. The quantity and quality of RNA were evaluated by capillary electrophoresis (Bioanalyzer 2100, Agilent).
(§3) RNA was used for cDNA synthesis using the Transcriptor Reverse Transcriptase kit (Roche). qPCR reactions were run on a Light Cycler (Roche Molecular Systems Inc.) according to manufacter's instructions. The relative gene expression levels of COL1A1, COL1A2, MMP1, TIMP1, CCL2 and ACTA2 were calculated using the ΔΔCt method. Target mRNA levels were normalized to GAPDH.
(§4) Expression of the genes in the different treated conditions was presented as fold change compared with the gene expression of the same non-treated fibroblasts arbitrary fixed at 100%.

[2] = system: ACTA2 mRNA; assay: mRNA expression of fibrosis genes in dermal fibroblasts (qPCR): ACTA2; assay type: cell-based; settings: Homo sapiens, Fibroblast, read-out: average inhibition of ACTA2 mRNA levels
Description: as §1, §2, §3, §4

[3] = system: COL1A2 mRNA; assay: mRNA expression of fibrosis genes in dermal fibroblasts (qPCR): COL1A2; assay type: cell-based; settings: Homo sapiens, Fibroblast, read-out: average inhibition of COL1A2 mRNA levels
Description: as §1, §2, §3, §4

[4] = system: COL1A1 mRNA; assay: mRNA expression of fibrosis genes in dermal fibroblasts (qPCR): COL1A1; assay type: cell-based; settings: Homo sapiens, Fibroblast, read-out: average inhibition of COL1A1 mRNA levels
Description: as §1, §2, §3, §4

[5] = system: dermal fibroblasts; assay: cytotoxicity on the fibroblasts (data not shown); assay type: cell-based, human
[6] = system: procollagen I; assay: release of procollagen I protein by dermal fibroblasts (ELISA), dose response; assay type: cell-based, human; settings: 48h, both cell types (SSC and healthy fibroblasts), vs non-treated
Description: as §1
Dermal fibroblasts were plated in DMEM 10% FCS supplemented with 20µg/mL of vitamin C in 96-well plates. 24h before the experiment, medium was switched to DMEM 0% FCS supplemented with 20µg/mL of vitamin C. […] Supernatants were collected to evaluate the procollagen I release level by ELISA kit (ref MK101, supplier Takara) according to manufacter's instructions. Triplicates were done. The level of procollagen I release was presented as fold change compared with the procollagen I release by the same non-treated fibroblasts arbitrary fixed at 100%.

[7] = system: MMP1 mRNA; assay: mRNA expression of fibrosis genes in dermal fibroblasts (qPCR): MMP1; assay type: cell-based; settings: Homo sapiens, Fibroblast, read-out: average inhibition of MMP1 mRNA levels
Description: as §1, §2, §3, §4

[8] = system: CCL2 mRNA; assay: mRNA expression of fibrosis genes in dermal fibroblasts (qPCR): CCL2; assay type: cell-based; settings: Homo sapiens, Fibroblast, 24h, SSc and healthy fibroblasts, vs non-treated, read-out: average inhibition of CCL2 mRNA levels
Description: as §1, §2, §3, §4

[9] = system: idiopathic pulmonary fibrosis; settings: on one year, 72 week phase III trial; cited from earlier work
[10] = system: diffuse scleroderma; assay: clinical case: patient with diffuse scleroderma treated with chemotherapy; assay type: in vivo, human; settings: methotrexate 7.5 mg to 10 mg per week for 5 years before admission
Source text: A person was referred for fever and abdominal pain. Their medical history was mainly represented by a systemic scleroderma diagnosed 20 years before and with digestive, cutaneous and rheumatologic involvement. […] Blood test found anti topo-I antibodies to high level (141 IU/mL, normal range 0-29). […] The modified Rodnan score was 24/51.
Then, it was proposed to the patient 4 cycles of chemotherapy FOLFORINOX followed by rectal surgery.
The patient received 4 cycles of FOLFORINOX (oxaliplatine 85 mg/m^2, irinotecan 180 mg/m^2, 5-fluoro-uracil 400 mg/m^2 flash then 2400 mg/m^2 the following 46 hours). Cycles of chemotherapy were administered every 14 days on January 13 and 27, and February 11 and 25, 2014.
Then, the patient had surgery and according to post-surgical piece, it was realized 6 cycles of FOLFOX (folinic acid, oxaliplatine and 5-fluorouracil) with no new improvement during these last 6 cycles.

[11] = system: procollagen I; assay: effect of a combination of low SN38 and 5FU doses on procollagen I release (ELISA); assay type: cell-based, human; settings: 5FU 1 µg/ml alone (condition B), 48h; patient SSC2, SSC3 or H2
Description: Dermal fibroblasts were plated in DMEM 10% FCS supplemented with 20µg/mL of vitamin C in 96-well plates. 24h before the experiment, medium was switched to DMEM 0% FCS supplemented with 20µg/mL of vitamin C. Cells were treated for 48h with SN38 (0.006 µg/mL), 5FU (1 µg/mL) or a combination (SN38 0.006 µg/mL and 5FU 1 µg/mL) in DMEM 0% FCS supplemented with 20µg/mL of vitamin C. Supernatants were collected to evaluate the procollagen I release level by ELISA kit (ref MK101, supplier Takara) according to manufacter's instructions. Triplicates were done. The level of procollagen I release was presented as fold change compared with the procollagen I release by the same non-treated fibroblasts arbitrary fixed at 100%.

[12] = system: diffuse cutaneous systemic sclerosis; settings: cited from earlier work
[13] = all the doses used in the procollagen I release test (irinotecan 0.006-40 µg/ml, SN38 0.00006-0.6 µg/ml, 5FU 0.3-80 µg/ml)
[14] = irinotecan 32 µM (highest dose), 24h, SSc and healthy fibroblasts, vs non-treated
[15] = 5FU 384 µM (highest dose), 24h, SSc and healthy fibroblasts, vs non-treated
[16] = control group (cyclophosphamide), share of patients

## CCc1c2c(nc3ccc(O)cc13)-c1cc3c(c(=O)n1C2)COC(=O)[C@]3(O)CC [SN38, 7-Ethyl-10-hydroxy-camptothecin]
[1]; 24 h
  inhibition at 1 µM: 22%
[2]; 24 h
  inhibition at 1 µM: 55%
[3]; 24 h
  inhibition at 1 µM: 52%
[4]; 24 h
  inhibition at 1 µM: 57.5%
[5]; 0.1 µM and 1 µM
  cytotoxic on the fibroblasts: not cytotoxic
[5]; [13]
  cytotoxic on the fibroblasts: not cytotoxic
[6]; 0.3 µg/mL
  release of procollagen I protein: significantly decreased
[6]; 0.6 µg/mL
  release of procollagen I protein: significantly decreased
[7]; 24 h
  inhibition at 1 µM: 42%

## CCc1c2c(nc3ccc(OC(=O)N4CCC(N5CCCCC5)CC4)cc13)-c1cc3c(c(=O)n1C2)COC(=O)[C@]3(O)CC [irinotecan, (S)-4,11-diethyl-3,4,12,14-tetrahydro-4-hydroxy-3,14-dioxo1H-pyrano[3',4':6,7]-indolizino[1,2-b]quinolin-9-yl-[1,4'bipiperidine]-1'-carboxylate]
[2]; [14]
  inhibition at 32 µM: 33%
[3]; [14]
  inhibition at 32 µM: 22%
[8]; irinotecan 32 µM (highest dose)
  inhibition at 32 µM: 19%
[4]; [14]
  inhibition at 32 µM: 27%
[5]; 3.2 µM and 32 µM
  cytotoxic on the fibroblasts: not cytotoxic
[5]; [13]
  cytotoxic on the fibroblasts: not cytotoxic
[6]; 40µg/mL
  release of procollagen I protein: significantly decreased
[7]; [14]
  inhibition at 32 µM: 32%

## Cc1ccc(=O)n(-c2ccccc2)c1 [Pirfenidone]
[9]
  reduce decline in lung function (forced vital capacity, FCV): 4.4%

## CN(Cc1cnc2nc(N)nc(N)c2n1)c1ccc(C(=O)N[C@@H](CCC(=O)O)C(=O)O)cc1 [methotrexate]
[10]
  impact on scleroderma evolution: without substantial impact

## O=c1[nH]cc(F)c(=O)[nH]1 [5FU, 5-Fluoro-1H,3H-pyrimidine-2,4-dione]
[1]; [15]
  inhibition at 384 µM: 15%
[3]; [15]
  inhibition at 384 µM: 12%
[8]; 5FU 384 µM (highest dose)
  inhibition at 384 µM: 31%
[11]
  procollagen I release: not observed
[4]; [15]
  inhibition at 384 µM: 17%
[5]; 38.4 µM and 384 µM
  cytotoxic on the fibroblasts: not cytotoxic
[5]; [13]
  cytotoxic on the fibroblasts: not cytotoxic
[6]; 80µg/mL
  release of procollagen I protein: significantly decreased
[7]; [15]
  inhibition at 384 µM: 37%

## O=P1(N(CCCl)CCCl)NCCCO1 (stereo not shown) [cyclophosphamide]
[12]; control group (cyclophosphamide), at 2 years
  events, cumulative: 18.2%
[12]; control group (cyclophosphamide), at 4 years
  events, cumulative: 26%
[12]; control group (cyclophosphamide), during the first year, no treatment-related deaths
  events: 10.4%
[12]; [16]
  Grade 3 or 4 adverse events: 37.0%
  Viral infections: 1.3%
[12]; control group (cyclophosphamide, n = 77), median follow-up of 5.8 years, 23 deaths and 8 irreversible organ failures
  events (deaths and irreversible organ failures): 31
